Assay results reported in patent US20080004282A1, “Compositions and methods for modulating gated ion channels” (PainCeptor Pharma Corporation, priority 2006, published 2008).

What was measured:
ASIC1a [1] = target: T1, ASIC1a (Homo sapiens, UniProt P78348); experiment: Calcium-imaging (FLIPR) of MES-induced calcium response in ASIC1a expressing HEK293 cells; format: cell-based; parameters: host or cells: HEK293
T1 sequence (P78348 1-528): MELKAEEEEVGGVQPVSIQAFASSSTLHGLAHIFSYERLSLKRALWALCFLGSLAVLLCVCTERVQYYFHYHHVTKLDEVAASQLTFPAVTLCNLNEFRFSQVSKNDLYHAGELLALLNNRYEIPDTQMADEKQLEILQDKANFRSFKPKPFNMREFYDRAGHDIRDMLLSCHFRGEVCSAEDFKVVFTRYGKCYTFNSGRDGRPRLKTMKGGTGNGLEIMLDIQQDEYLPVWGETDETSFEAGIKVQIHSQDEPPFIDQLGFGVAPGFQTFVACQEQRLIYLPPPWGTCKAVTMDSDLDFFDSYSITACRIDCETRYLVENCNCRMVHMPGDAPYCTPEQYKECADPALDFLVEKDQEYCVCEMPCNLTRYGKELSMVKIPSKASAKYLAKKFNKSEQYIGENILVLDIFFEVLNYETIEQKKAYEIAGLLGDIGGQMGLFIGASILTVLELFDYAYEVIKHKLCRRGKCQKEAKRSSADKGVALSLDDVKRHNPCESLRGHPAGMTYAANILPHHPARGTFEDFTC
Protocol: Identification of ASIC Antagonists Using Calcium-Imaging
ASIC1a expressing HEK293 cells are grown in culture medium (DMEM with 10% FBS), in polystyrene culture flasks (175 mm 2) at 37° C. in a humidified atmosphere of 5% CO2. Confluency of cells should be 80-90% on day of plating. Cells are rinsed with 10 ml of PBS and cells are re-suspended by addition of culture medium and trituration with a 25 ml pipette.
The cells are seeded at a density of approximately 1×10^6 cells/ml (100 μl/well) in black-walled, clear bottom, 96-well plates pre-treated with 10 mg/l poly-D-lysin (75 μl/well for ≧30 min). Plated cells are allowed to proliferate for 24 h before loading with dye.
Loading with Fluorescent Calcium Dye Fluo-4/AM
Fluo-4/AM (1 mg, Molecular Probes) is dissolved in 912 μl DMSO. The Fluo-4/AM stock solution (1 mM) is diluted with culture medium to a final concentration of 2 μM (loading solution).
The culture medium is aspirated from the wells, and 50 μl of the Fluo-4/AM loading solution is added to each well. The cells are incubated at 37° C. for 30 min.
After the loading period, the loading solution is aspirated and the cells are washed twice with 100 μl modified Assay Buffer (145 mM NaCl, 5 mM KCl, 5 mM CaCl2, 1 mM MgCl2, 10 mM HEPES, pH 7.4) to remove extracellular dye. Following the second wash, 100 μl modified Assay Buffer is added to each well and the fluorescence is measured in FLIPR™ or FlexStation™ (Molecular Devices, USA), or any other suitable equipment known to the skilled in the art.
Temperature: Room temperature (20-22° C.)
First addition: 50 μl test solution at a rate of 30 μl/sec and a starting height of […]
Second addition: 50 μl MES solution (20 mM, 5 mM final concentration) at a rate of 35 μl/sec and a starting height of 150 μl.
Reading intervals: pre-incubation—10 sec×7 and 3 sec×3 antagonist phase—3 sec×17 and 10 sec×12
Addition plates (compound test plate and MES plate) are placed on the right and left positions in the FLIPR tray, respectively. Cell plates are placed in the middle position and the ASIC1a program is effectuated. FLIPR will then take the appropriate measurements in accordance with the interval settings above. Fluorescence obtained after stimulation is corrected for the mean basal fluorescence (in modified Assay Buffer).
Hit Confirmation and Characterization of Active Substances
The MES-induced peak calcium response, in the presence of test substance, is expressed relatively to the MES response alone. Test substances that block the MES-induced calcium response are re-tested in triplicates. […]

ASIC1a [2] = target: T1, ASIC1a; experiment: Two-electrode voltage clamp of acid-induced currents in Xenopus laevis oocytes; format: cell-based; parameters: expressed in transfected cells; host or cells: Xenopus laevis oocytes, nuclear microinjection of an expression vector such as pCDNA3; details: for inhibition at 50 µM: Xenopus oocytes, read-out: % inh. at 50 μM (Xo)
Protocol: Screening and Bioanalysis of ASIC Antagonists in Xenopus laevis oocytes
This example describes the in vitro assessment of the activity of the compounds of the present invention.
Two-electrode voltage clamp electrophysiological assays in Xenopus laevis oocytes expressing gated ion channels are performed as follows:
Oocytes are surgically removed from adult Xenopus laevis and treated for 2 h at room temperature with 1 mg/ml type I collagenase (Sigma) in Barth's solution under mild agitation. Selected oocytes at stage IV-V are defolliculated manually before nuclear microinjection of 2.5-5 ng of a suitable expression vector, such as pCDNA3, comprising the nucleotide sequence encoding a gated ion channel subunit protein. In such an experiment, the oocytes express homomultimeric proton-gated ion channels on their surface. In an alternate experiment, one, two, three or more vectors comprising the coding sequences for distinct gated ion channel subunits are co-injected in the oocyte nuclei. In the latter case, oocytes express heteromultimeric proton-gated ion channels. For example, ASIC2a and/or ASIC3 subunits in pcDNA3 vector are co-injected at a 1:1 cDNA ratio. After 2-4 days of expression at 19° C. in Barth's solution containing […] gentamicin and 1.8 mM CaCl2, gated ion channels are activated by applying an acidic solution (pH<7) and currents are recorded in a two electrode voltage-clamp configuration, using an OC-725B amplifier (Warner Instruments). Currents are acquired and digitized at 500 Hz on an Apple Imac G3 computer with an A/D NB-MIO-16XL interface (National Instruments) and recorded traces are post-filtered at 100 Hz in Axograph (Axon Instruments) (Neher, E. and Sakmann, B. (1976) Nature 260:799-802). Once impaled with the microelectrodes, oocytes are continuously superfused at 10-12 ml/min with a modified Ringer's solution containing 97 mM NaCl, 2 mM KCl, 1.8 mM CaCl2, and 10 mM HEPES brought to pH 7.4 with NaOH (Control Ringer). Test Ringer solution is prepared by replacing HEPES with MES and adjusting the pH to the desired acidic value. Compounds of the present invention are prepared in both the Control and Test Ringer solutions and applied to oocytes at room temperature through a computer-controlled switching valve system. Osmolarity of all solutions is adjusted to 235 mOsm with choline chloride. Similarly, recordings can also be acquired in an automated multichannel oocytes system as the OpusExpress™ (Molecular Devices, Sunnyvale, USA).
FIGS. 1A and 2A illustrate the inhibitory effects of Compounds 12 and 44 on acid-induced activation of recombinant homomeric hASIC1a channels. FIGS. 1A and 2A show the dose-dependent inhibition of the acid-induced hASIC1a currents recorded from Xenopus laevis oocytes using the two-electrode voltage clamp method (as described in this example) in the absence or presence of increasing concentration of the compounds.

SMILES | IC50 (ASIC1a [1]) [µM] | IC50 (ASIC1a [2]) [µM] | inhibition at 50 µM (ASIC1a [2]) [%] | IC50 (ASIC1a [2]; Xenopus laevis oocytes, three point dose-response, read-out: IC50, half maximal inhibition of the acid-evoked response in hASIC1a) [µM]
CCN1CCc2c(-c3cc(Cl)ccc3OC)cc(C#N)c(N)c2C1 [Compound 44] | < 10 | 8.5 | > 50 | 
CCN1CCc2c(-c3ccccc3)cc(C#N)c(N)c2C1 [Compound 12, 8-Amino-2-ethyl-5-phenyl-1,2,3,4-tetrahydro-isoquinoline-7-carbonitrile] |  |  | > 50 | 5.9
